# Experimental data from patent publication US6410685B1, “Antistress agents and functional foods” (Calpis Co., Ltd., priority 1997, dated 2002).
# Marks after values point to notes of the source that are not given here.
# Tested on: Wister rats exposed to cold stress
# Assay: Blood pressure by tail-cuff method in rats exposed to cold stress
# Assay type: in vivo, rat
# Details: Example 5, day 10, 3 mg/kg body weight of single tripeptide oral
# Source text: 24 male Wister rats (body weight about 300 g) were preliminarily fed for one week. During the preliminary feeding period and the experimental period, the rats were restrictively fed with commercial diet (trade name “CE-2” manufactured by NIHON CREA CO.), and allowed to take water ad libitum.
# After the preliminary feeding period, the rats were divided into three groups (eight rats each), namely, (1) the group not exposed to stress and given saline, (2) the group exposed to stress and given saline, and (3) the group exposed to stress, and given VPP and IPP. The animals of groups (2) and (3) were exposed to stress for 9 days by putting them in a cold room (4° C.) for 4 hours per one day.
# On the day 10, rats of groups (1) and (2) were given 1 ml of saline, and rats of group (3) were given 1 ml of saline containing 3 mg/kg body weight each of IPP and VPP synthesized in Example 3, by forcible administration into stomach via an oral sonde. After the administration, the rats of groups (2) and (3) were exposed to cold stress for 4 hours. Two hours after finishing the stress loading, blood pressure of the rats in each group was measured by tail-cuff method using a non-warming, non-invasive rat sphygmomanometer (Type PE-300, manufactured by CSI CO.).
# After the preliminary feeding period, the rats were divided into three groups (eight rats each), namely, (1) the group given saline, (2) the group given VPP, and (3) the group given IPP. The rats of groups (1) to (3) were exposed to stress for 9 days by, as in Example 4, putting them in a cold room (4° C.) for 4 hours per one day.
# On the day 10, rats of group (1) were given 1 ml of saline, and rats of group (2) and (3) were given 1 ml of saline containing 3 mg/kg body weight of IPP or 3 mg/kg body weight of VPP, respectively, synthesized in Example 3, by forcible administration into stomach via an oral sonde. After the administration, the rats of groups (1) to (3) were exposed to cold stress for 4 hours, and blood pressure was measured as in Example 4.
# The test was carried out in the same way as in Example 5 except that the group (1) rats were given 2 ml of saline, and the rats in group (2) were given 5 ml/kg body weight of the fermented milk obtained in Example 1, and the rats in group (3) were given 2 ml of saline containing 150 mg/kg of the purified tripeptide fraction powders obtained in Example 2, respectively. After the administration of the samples and exposure to stress, the blood pressure of each rat was measured.
Substance,Diastolic Blood Pressure,Systolic Blood Pressure
Ile-Pro-Pro [IPP],102* mmHg,130* mmHg
Val-Pro-Pro [VPP],101* mmHg,131* mmHg
